# Results as given in patent publication US20240116985A1, “STAPLED PEPTIDES AND METHODS THEREOF” (priority 2020, published 2024).
# Like-named read-outs stand apart in the source and are kept apart here.
# Legend:
# CHI Log D procedure = assay type: physicochemical; settings: for chromatographic logD: pH 7.4, CHI Log D; for CHI Log D: pH 7.4
# [1] = biological target: T1, full-length beta-Catenin (Uniprot ID P35222) (Homo sapiens, UniProt P35222); experiment: Fluorescence polarization IC50 (beta-catenin / 5FAM-TCF4 10-53 competition); assay type: binding
# T1 construct: 10 nM full-length beta-Catenin (Uniprot ID P35222)
# T1 sequence (P35222 1-781): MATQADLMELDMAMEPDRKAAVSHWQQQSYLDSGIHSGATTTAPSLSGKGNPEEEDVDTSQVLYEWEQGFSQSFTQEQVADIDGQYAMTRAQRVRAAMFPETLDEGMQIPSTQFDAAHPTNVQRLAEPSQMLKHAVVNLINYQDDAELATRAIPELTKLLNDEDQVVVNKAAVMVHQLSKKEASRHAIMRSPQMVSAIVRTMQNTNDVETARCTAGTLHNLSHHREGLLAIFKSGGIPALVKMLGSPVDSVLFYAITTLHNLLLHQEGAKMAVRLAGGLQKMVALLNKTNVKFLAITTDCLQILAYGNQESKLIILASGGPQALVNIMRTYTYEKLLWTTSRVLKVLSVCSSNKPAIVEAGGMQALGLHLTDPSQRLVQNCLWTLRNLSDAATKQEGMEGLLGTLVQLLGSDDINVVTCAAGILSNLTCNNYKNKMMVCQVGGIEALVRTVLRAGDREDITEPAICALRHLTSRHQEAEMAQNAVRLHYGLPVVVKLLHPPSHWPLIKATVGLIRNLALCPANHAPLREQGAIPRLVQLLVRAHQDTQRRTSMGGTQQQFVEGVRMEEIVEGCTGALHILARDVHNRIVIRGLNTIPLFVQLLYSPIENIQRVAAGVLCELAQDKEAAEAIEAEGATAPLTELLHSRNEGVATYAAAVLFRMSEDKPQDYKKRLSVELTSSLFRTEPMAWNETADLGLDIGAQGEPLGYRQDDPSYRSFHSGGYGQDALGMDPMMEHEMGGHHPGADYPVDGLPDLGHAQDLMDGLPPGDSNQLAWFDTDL
# [2] = biological target: T2, beta-catenin/TCF4 engagement (Homo sapiens, UniProt P35222); experiment: Nano-BRET target engagement assay (B-cat-Halo & TCF4-Luc in HEK293 cells); assay type: cell-based; settings: for IC50: read-out: NanoBRET Abs IC50; for inhibition at 10 µM: read-out: NanoBRET % inh @ 10 uM
# T2 construct: expressed in transfected cells; host or cells: HEK293
# T2 sequence (P35222 1-781): T1 sequence (P35222 1-781)
# [3] = fluorescence polarization, beta-catenin, read-out: FP EC50
# [4] = fluorescence polarization, read-out: beta-Catenin FP IC50
SMILES,chromatographic logD (CHI Log D procedure),IC50 ([1]; read-out: beta-Catenin FP IC50),IC50 [2],CHI Log D (CHI Log D procedure),further results
"CC(=O)N1CCC[C@]12CC=CCCCC1(CCCC=CCCCOC(=O)N3CC[C@@](C(=O)N[C@@H](Cc4ccccc4Cl)C(=O)N[C@@H](Cc4csc5ccccc45)C(=O)N[C@@H](CCC(N)=O)C(N)=O)(C3)NC(=O)[C@H](CC(C)C)NC(=O)[C@H](Cc3ccccc3)NC(=O)[C@H](C)NC(=O)[C@H](C)NC(=O)[C@H](CC(=O)O)NC(=O)[C@H](CC(=O)O)NC1=O)NC(=O)[C@H](CC(C)(C)C)NC(=O)[C@H](CC(=O)O)NC2=O (stereo partly drawn) [I-1062, Ac-PL3-Asp-Npg-B5-Asp-Asp-Ala-Ala-Phe-Leu-PyrS2-2C1F-BztA-Gln-NH2]",1.9,11 nM,4700 nM,–,"IC50 [1, 3]: 393 nM"
"CC(=O)N1CCC[C@]12CC=CCCCC1(CCCC=CCCCOC(=O)N3CC[C@@](C(=O)N[C@@H](Cc4ccsc4)C(=O)N[C@@H](Cc4csc5ccccc45)C(=O)N[C@@H](Cc4c[nH]cn4)C(N)=O)(C3)NC(=O)[C@H](CCC(N)=O)NC(=O)[C@H](Cc3ccccc3)NC(=O)[C@H](C)NC(=O)[C@H](C)NC(=O)[C@H](CC(=O)O)NC(=O)[C@H](CC(=O)O)NC1=O)NC(=O)[C@H](CC(C)(C)C)NC(=O)[C@H](CC(=O)O)NC2=O (stereo partly drawn) [I-771, Ac-PL3-Asp-Npg-B5-Asp-Asp-Ala-Ala-Phe-Gln-PyrS2-3Thi-BztA-His-NH2]",–,5 nM,37300 nM,2.031,–
"CC(=O)N1CCC[C@]12CC=CCCCC1(CCCC=CCCCOC(=O)N3CC[C@@](C(=O)N[C@@H](Cc4ccsc4)C(=O)N[C@@H](Cc4cn(C)c5ccccc45)C(=O)N[C@@H](Cc4c[nH]cn4)C(N)=O)(C3)NC(=O)[C@H](CC(N)=O)NC(=O)[C@H](Cc3ccccc3)NC(=O)[C@H](C)NC(=O)[C@H](C)NC(=O)[C@H](CC(=O)O)NC(=O)[C@H](CC(=O)O)NC1=O)NC(=O)[C@H](CC(C)(C)C)NC(=O)[C@H](CC(=O)O)NC2=O (stereo partly drawn) [I-799, Ac-PL3-Asp-Npg-B5-Asp-Asp-Ala-Ala-Phe-Asn-PyrS2-3Thi-1MeW-His-NH2]",2.06,92 nM,–,–,"inhibition at 10 µM ([2]; HEK293, 10 uM): 0.9%"
"C#CCOCCC(=O)NCCCC[C@H](NC(=O)[C@H](CCC(N)=O)NC(=O)[C@H](Cc1csc2ccccc12)NC(=O)[C@H](Cc1ccsc1)NC(=O)[C@]12CCN(C1)C(=O)OCCCC=CCCCC1(CCCC=CC[C@]3(CCCN3C(C)=O)C(=O)N[C@@H](CC(=O)O)C(=O)N[C@@H](CC(C)(C)C)C(=O)N1)C(=O)N[C@@H](CC(=O)O)C(=O)N[C@@H](CC(=O)O)C(=O)N[C@@H](C)C(=O)N[C@@H](C)C(=O)N[C@@H](Cc1ccccc1)C(=O)N[C@@H](CC(N)=O)C(=O)N2)C(N)=O (stereo partly drawn) [I-935, Ac-PL3-Asp-Npg-B5-Asp-Asp-Ala-Ala-Phe-Asn-PyrS2-3Thi-BztA-Gln-[PropynPEG1]Lys-NH2]",1.93,8 nM,33100 nM,–,–
"CC(=O)N1CCC[C@]12CC=CCCCC1(CCCC=CCCCOC(=O)N3CC[C@@](C(=O)N[C@@H](Cc4ccsc4)C(=O)N[C@@H](Cc4csc5ccccc45)C(=O)N[C@@H](CCC(N)=O)C(N)=O)(C3)NC(=O)[C@H](CC(N)=O)NC(=O)[C@H](Cc3ccccc3)NC(=O)[C@H](C)NC(=O)[C@H](C)NC(=O)[C@H](CN(CC(=O)O)CC(F)(F)F)NC(=O)[C@H](CC(=O)O)NC1=O)NC(=O)[C@H](CC(C)(C)C)NC(=O)C[C@H](CC(=O)O)NC2=O (stereo partly drawn) [I-1161, Ac-PL3-RbGlu-Npg-B5-Asp-TfeGA-Ala-Ala-Phe-Asn-PyrS2-3Thi-BztA-Gln-NH2]",2.08,–,–,–,"IC50 [1, 4]: 24 nM; IC50 ([2]; absolute IC50): > 20000 nM"

# Further lines, with some results ahead:
chromatographic logD (CHI Log D procedure),IC50 ([1]; read-out: beta-Catenin FP IC50),IC50 [2],CHI Log D (CHI Log D procedure),SMILES,further results
–,9 nM,39800 nM,2.095,"CC(=O)N1CCC[C@]12CC=CCCCC1(CCCC=CCCCCOC(=O)N3CC[C@@](C(=O)N[C@@H](Cc4ccsc4)C(=O)N[C@@H](Cc4csc5ccccc45)C(=O)N[C@@H](Cc4c[nH]cn4)C(=O)N[C@H](C)C(N)=O)(C3)NC(=O)[C@H](CC(N)=O)NC(=O)[C@H](Cc3ccccc3)NC(=O)[C@H](C)NC(=O)[C@H](C)NC(=O)[C@H](CC(=O)O)NC(=O)[C@H](CC(=O)O)NC1=O)NC(=O)[C@H](CC(C)(C)C)NC(=O)[C@H](CC(=O)O)NC2=O (stereo partly drawn) [I-832, Ac-PL3-Asp-Npg-B5-Asp-Asp-Ala-Ala-Phe-Asn-PyrS3-3Thi-BztA-His-dAla-NH2]","IC50 [1, 3]: 9 nM"
–,–,–,2.419,"CC(=O)N1CCC[C@]12CC=CCCCC1(CCCC=CCCCCCC[C@@](C)(C(=O)N[C@@H](Cc3ccccc3)C(=O)N[C@@H](Cc3csc4ccccc34)C(=O)N[C@@H](CC(N)=O)C(N)=O)NC(=O)[C@H](CC(N)=O)NC(=O)[C@H](Cc3ccccc3)NC(=O)[C@H](C)NC(=O)[C@H](C)NC(=O)[C@H](CCC(=O)O)NC(=O)[C@H](CC(=O)O)NC1=O)NC(=O)[C@H](CC(C)C)NC(=O)[C@H](CC(=O)O)NC2=O (stereo partly drawn) [I-752, Ac-PL3-Asp-Leu-B5-Asp-Glu-Ala-Ala-Phe-Asn-S8-Phe-BztA-Asn-NH2]","IC50 [1, 4]: 16 nM; IC50 ([1]; read-out: FP EC50): 16 nM; IC50 ([2]; Abs IC50): 9900 nM; inhibition at 10 µM ([2]; HEK293, @ 10 uM): 53%; IC50 ([2]; absolute IC50): 9900 nM"
1.82,12 nM,22900 nM,–,"COCCOCCC(=O)NCCCC[C@H](NC(=O)[C@H](CCC(N)=O)NC(=O)[C@H](Cc1csc2ccccc12)NC(=O)[C@H](Cc1ccsc1)NC(=O)[C@]12CCN(C1)C(=O)OCCCC=CCCCC1(CCCC=CC[C@]3(CCCN3C(C)=O)C(=O)N[C@@H](CC(=O)O)C(=O)N[C@@H](CC(C)(C)C)C(=O)N1)C(=O)N[C@@H](CC(=O)O)C(=O)N[C@@H](CC(=O)O)C(=O)N[C@@H](C)C(=O)N[C@@H](C)C(=O)N[C@@H](Cc1ccccc1)C(=O)N[C@@H](CC(N)=O)C(=O)N2)C(N)=O (stereo partly drawn) [I-911, Ac-PL3-Asp-Npg-B5-Asp-Asp-Ala-Ala-Phe-Asn-PyrS2-3Thi-BztA-Gln-[mPEG2]Lys-NH2]",–
1.94,7 nM,22200 nM,–,"C#CCOCCOCCC(=O)NCCCC[C@H](NC(=O)[C@H](CCC(N)=O)NC(=O)[C@H](Cc1csc2ccccc12)NC(=O)[C@H](Cc1ccsc1)NC(=O)[C@]12CCN(C1)C(=O)OCCCC=CCCCC1(CCCC=CC[C@]3(CCCN3C(C)=O)C(=O)N[C@@H](CC(=O)O)C(=O)N[C@@H](CC(C)(C)C)C(=O)N1)C(=O)N[C@@H](CC(=O)O)C(=O)N[C@@H](CC(=O)O)C(=O)N[C@@H](C)C(=O)N[C@@H](C)C(=O)N[C@@H](Cc1ccccc1)C(=O)N[C@@H](CC(N)=O)C(=O)N2)C(N)=O (stereo partly drawn) [I-936, Ac-PL3-Asp-Npg-B5-Asp-Asp-Ala-Ala-Phe-Asn-PyrS2-3Thi-BztA-Gln-[PropynPEG2]Lys-NH2]",–
–,13 nM,> 20000 nM,2.1,"CC(=O)N1CCC[C@]12CC=CCCCC1(CCCC=CCCCCOC(=O)N3CC[C@@](C(=O)N[C@@H](Cc4ccsc4)C(=O)N[C@@H](Cc4csc5ccccc45)C(=O)N[C@@H](Cc4c[nH]cn4)C(=O)N[C@@H](C)C(N)=O)(C3)NC(=O)[C@H](CC(N)=O)NC(=O)[C@H](Cc3ccccc3)NC(=O)[C@H](C)NC(=O)[C@H](C)NC(=O)[C@H](CC(=O)O)NC(=O)[C@H](CC(=O)O)NC1=O)NC(=O)[C@H](CC(C)(C)C)NC(=O)[C@H](CC(=O)O)NC2=O (stereo partly drawn) [I-827, Ac-PL3-Asp-Npg-B5-Asp-Asp-Ala-Ala-Phe-Asn-PyrS3-3Thi-BztA-His-Ala-NH2]","IC50 [1, 3]: 13 nM"
1.45,15 nM,> 20000 nM,–,"COCCOCCOCCOCCC(=O)NCCCC[C@@H]1NC(=O)[C@H](C)NC(=O)[C@H](CC(=O)O)NC(=O)[C@H](CC(=O)O)NC(=O)C2(CCCC=CCCCOC(=O)N3CC[C@@](C(=O)N[C@@H](Cc4ccsc4)C(=O)N[C@@H](Cc4csc5ccccc45)C(=O)N[C@@H](CCC(N)=O)C(N)=O)(C3)NC(=O)[C@H](CC(N)=O)NC(=O)[C@H](Cc3ccccc3)NC1=O)CCCC=CC[C@]1(CCCN1C(C)=O)C(=O)N[C@@H](CC(=O)O)C(=O)N[C@@H](CC(C)(C)C)C(=O)N2 (stereo partly drawn) [I-894, Ac-PL3-Asp-Npg-B5-Asp-Asp-Ala-[mPEG4]Lys-Phe-Asn-PyrS2-3Thi-BztA-Gln-NH2]",–
–,5 nM,13000 nM,2.307,"CC(=O)N1CCC[C@]12CC=CCCCC1(CCCC=CCCCOC(=O)N3CC[C@@](C(=O)N[C@@H](Cc4ccsc4)C(=O)N[C@@H](Cc4csc5ccccc45)C(=O)N[C@@H](Cc4c[nH]cn4)C(N)=O)(C3)NC(=O)[C@H](CC(N)=O)NC(=O)[C@H](Cc3ccccc3)NC(=O)[C@H](C)NC(=O)[C@H](C)NC(=O)[C@H](CN(CC(=O)O)CC(F)(F)F)NC(=O)[C@H](CC(=O)O)NC1=O)NC(=O)[C@H](CC(C)(C)C)NC(=O)[C@H](CC(=O)O)NC2=O (stereo partly drawn) [I-769, Ac-PL3-Asp-Npg-B5-Asp-TfeGA-Ala-Ala-Phe-Asn-PyrS2-3Thi-BztA-His-NH2]",IC50 ([2]; Abs IC50): 13000 nM
